Results taken from US10738310B2, “Treating cancer deficient in FANCA, FANCD2, FANCE, or FANCG with an ATM inhibitor” (Dana-Farber Cancer Institute, Inc., priority 2006, dated 2020).

Test system: FANCE protein
Experiment: Western blot of FANCE level in synchronized HeLa cells
Type: cell-based, human
Conditions: S phase HeLa; HU 2 mM 24 hr; MMC 160 ng/ml 24 hr; Cisplatin 10 μM 24 hr
Protocol: FIG. 24B is a photograph of a Western blot showing FANCE phosphorylation by Chk1 promotes its degradation. HeLa cells were synchronized by double-thymidine block, and then released into S phase. One hour after release, the cells were either untreated (Control) or treated with UV (60 J/m^2, 15 hr), HU, (2 mM, 24 hr), MMC (160 ng/ml, 24 hr) and Cisplatin, (10 μM 24 hr). Whole cell extracts were analyzed by Western blot with the indicated antibodies. Anti-β-Tubulin blot was used as a loading control.
HeLa cells were synchronized at the G1-S boundary with double-thymidine block and released the cells into S phase for 1 hour before DNA damage treatment. […] UV-inducible FANCE degradation was also observed in other cell lines, including U2OS, GM0637 and HEK293T cells (FIG. 27B).

Row | Structure (SMILES) | level of FANCE protein
1 | NC(=O)NO [HU] | significantly decreased
2 | N.N.[Cl][Pt][Cl] [cisplatin] | significantly decreased
